# Reference: patent US10202343B2, “MIF modulators” (YALE UNIVERSITY, priority 2008, dated 2019)
# pIC50: −log10 of the molar value. Where two headings read alike, the source gives them in different places.
# Key:
# MIF tautomerase activity = target: T1, MIF tautomerase activity (Homo sapiens, UniProt P14174); details: literature, Cheng & Al-Abed 2006; cited from earlier work
# T1 sequence (P14174 2-115 limits assumed): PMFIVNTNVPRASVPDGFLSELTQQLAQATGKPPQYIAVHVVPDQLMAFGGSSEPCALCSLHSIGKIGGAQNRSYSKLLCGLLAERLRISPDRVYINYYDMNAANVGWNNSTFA
# [1] = press release, cited from earlier work
# [2] = target: T2, Human MIF (MIF tautomerase activity) (Homo sapiens, UniProt P14174); experiment: HPP tautomerase assay; assay type: biochemical; details: for HPP IC50: Table 8
# T2 construct: made in house
# T2 sequence (P14174 2-115 limits assumed): T1 sequence (P14174 2-115 limits assumed)
# Experimental: The HPP assay used was adapted to the microtiter plate format. […] Dilutions of the enzyme were prepared in 50 mM sodium phosphate buffer, 1 mM EDTA, pH 6.5. HPP was obtained from Aldrich. A stock solution of 60 mM HPP in ethanol is prepared and kept for maximally 4 hours on ice. The working solution (600 μM) of the substrate was prepared by diluting an aliquot of the stock solution with 50 mM sodium phosphate buffer, 1 mM EDTA, pH 6.5. […] Inhibitor and enzyme solutions were pipetted manually using an Eppendorf 12-channel pipette. Addition of substrate to start the reaction was performed with an Igel 96 pipetting station (OpalJena, Jena, Germany), which allows simultaneous addition of fluid to all 96 wells of the plates. Optical density (OD) was determined using a SPECTRAmax 250 reader (Molecular Devices). The reader was operated with the SoftmaxPro 2.6.1 software. Assay: Three wells of the microtiter plates were filled with buffer only, to allow for blanking. […] The last step was performed using the 96-channel pipetting device. The plate was then immediately (i.e. within a few seconds) transferred manually to the SPECTRAmax 250 reader and the optical density was determined (310 nm). From the data obtained, IC50 values were calculated using Excel® and XLfit® software.
# [3] = target: T3, MIF-CD74 Binding (biotin-labeled recombinant human MIF, recombinant human MIF receptor CD74 ectodomain) (Homo sapiens, UniProt P14174); experiment: MIF-CD74 binding (capture) assay; design: concentration of C74 % MaxInhib (number after @): unit not given here; details: for CD74 IC50: Table 6, data cell c9
# T3 sequence (P14174 2-115 limits assumed): T1 sequence (P14174 2-115 limits assumed)
# ovarian cancer cell line = experiment: growth of an ovarian cancer cell line; assay type: cell-based
# Text: KSP inhibitor ARRY-520 is used as a substitute for Paclitaxel in Type I ovarian cancer cells. J Transl Med. 7:63.
# [4] = tested on: MIF-dependent signal transduction (ERK1/2 phosphorylation); experiment: MIF-dependent signal transduction in cells (ERK1/2 phosphorylation); assay type: cell-based; details: compared to isoxazoline-1
# Experimental: Two additional assays were performed on compounds according to the present invention. In the first, MIF-dependent signal transduction in cells as evidenced by a reduction in ERK1/2 phosphorylation and its inhibitory action is compared to the known small molecule MIF antagonist, isoxazoline-1 following the assay reported in Leng L., Metz C, Fang Y, Xu J, Donnelly S, Baugh J, Delonery T, Chen Y, Mitchell R A, and Bucala R. 2003. MIF Signal Transduction Initiated by Binding to CD74. J Exp Med 197, 1467-1476.
# [5] = Table 6, data cell c7, read-out: HPP IC50
# [6] = Table 6, data cell c8, number before @
# [7] = Table 7, data cell c6, number before @
# [8] = Table 7, data cell c7, number before @
structure (smiles),measurement,setting,value
CC(C)(C)OC(=O)C[C@H]1CC(c2ccc(O)c(F)c2)=NO1 [(R)-17],potency (inhibition of MIF tautomerase activity),MIF tautomerase activity,0.55 µM
"Ic1cc(-c2ccccc2)ncn1 [Compound 4-IPP, 4-iodo-6-phenylpyrimidine, reference compound]",anti-tumor activity,[1]; by blocking tumor-specific angiogenesis,exhibits anti-tumor activity
same,safety profile,[1]; laboratory studies,favorable safety profile
same,pIC50,[2]; read-out: inhibitor in the HPP tautomerase assay,5.35
same,activity in the capture assay,[3],inactive
N#Cc1ccc2c(=O)n(-c3ccc(Cl)cc3)sc2c1 [Compound 37],activity in the ovarian cancer assay (growth inhibition),ovarian cancer cell line,significant activity
same,pIC50,"[2]; Table 3, read-out: HPP IC50",5.51
same,pIC50,[2]; [5],5.51
same,Capture % Max. Inhib.,[3]; Table 3,16%
same,CD74 % MaxInhib,[3]; [6],16%
Cc1ccc2oc(=O)n(Cc3cccc(O)c3)c2c1 [Compound 098],inhibitory action on MIF-dependent ERK1/2 phosphorylation,[4],significant inhibitory action
same,activity in the ovarian cancer assay (growth inhibition),ovarian cancer cell line,significant activity
same,pIC50,"[2]; Table 4, read-out: HPP IC50",8.00
same,concentration of CD74 % MaxInhib (number after @),[3]; Table 4,0.0078 µM
O=C(c1cc2cc(F)ccc2o1)N1CCc2ccccc21 [MIF-089],concentration of HPP Max Inhib (number after @),[2]; Table 14,1 µM
same,HPP Max Inhib,"[2]; Table 14, number before @",19%
same,concentration of CD74 % MaxInhib (number after @),[3]; Table 14,0.12 µM
same,CD74 % MaxInhib,"[3]; Table 14, number before @",30%
COc1ccc(Cc2cn(-c3ccc(O)cc3)nn2)cc1OC [MIF-090],pIC50,"[2]; Table 18, read-out: HPP IC50",4.15
same,concentration of C74 % MaxInhib (number after @),[3]; Table 18,0.078
same,C74 % MaxInhib,"[3]; Table 18, number before @",22%
Cc1ccc2c(c1)CCN2C(=O)c1cc2ccccc2o1 [MIF-094],pIC50,"[2]; Table 14, read-out: HPP IC50",3.12
same,concentration of CD74 % MaxInhib (number after @),[3]; Table 14,0.95 µM
same,CD74 % MaxInhib,"[3]; Table 14, number before @",33%
Cc1ccc2c(c1)N(C(=O)c1cc3ccccc3o1)CC2 [MIF-095],pIC50,"[2]; Table 14, read-out: HPP IC50",3.04
same,concentration of CD74 % MaxInhib (number after @),[3]; Table 14,0.039 µM
same,CD74 % MaxInhib,"[3]; Table 14, number before @",33%
O=C(c1cc2ccccc2o1)N1CCc2cc(F)ccc21 [MIF-096],pIC50,"[2]; Table 14, read-out: HPP IC50",2.87
same,concentration of CD74 % MaxInhib (number after @),[3]; Table 14,1.87 µM
same,CD74 % MaxInhib,"[3]; Table 14, number before @",19%
O=c1oc2ccc(F)cc2n1Cc1cccc(O)c1 [MIF-108],activity in the ovarian cancer assay (growth inhibition),ovarian cancer cell line,significant activity
Clc1ccc2nc(-c3ccccc3)oc2c1 [MIF-120],concentration of HPP % MaxInhib (number after @),[2]; Table 7,0.1 µM
same,HPP % MaxInhib,[2]; [7],13%
same,concentration of CD74 % MaxInhib (number after @),[3]; Table 7,0.078 µM
same,CD74 % MaxInhib,[3]; [8],11%
Clc1ccc(-c2nc3ccc(Cl)cc3o2)cc1 [MIF-121],HPP % MaxInhib,[2]; [7],43%
same,concentration of CD74 % MaxInhib (number after @),[3]; Table 7,0.078 µM
same,CD74 % MaxInhib,[3]; [8],27%
Clc1ccc(-c2nc3cc(Cl)ccc3o2)cc1 [MIF-122],HPP % MaxInhib,[2]; [7],31%
same,concentration of CD74 % MaxInhib (number after @),[3]; Table 7,3.76 µM
same,CD74 % MaxInhib,[3]; [8],13%
Cc1ccc2nc(-c3ccc(Cl)cc3)oc2c1 [MIF-123],concentration of HPP % MaxInhib (number after @),[2]; Table 7,50 µM
same,HPP % MaxInhib,[2]; [7],14%
same,concentration of CD74 % MaxInhib (number after @),[3]; Table 7,3.76 µM
same,CD74 % MaxInhib,[3]; [8],26%
Cc1ccc2oc(-c3ccc(Cl)cc3)nc2c1 [MIF-124],concentration of HPP % MaxInhib (number after @),[2]; Table 7,1000 µM
same,HPP % MaxInhib,[2]; [7],29%
same,concentration of CD74 % MaxInhib (number after @),[3]; Table 7,0.078 µM
same,CD74 % MaxInhib,[3]; [8],11%
O=C1c2cc(F)ccc2CN1c1ccc(Cl)cc1 [MIF-125],HPP % MaxInhib,"[2]; Table 9, number before @",45%
same,concentration of CD74 % MaxInhib (number after @),[3]; Table 9,0.12 µM
same,CD74 % MaxInhib,"[3]; Table 9, number before @",19%
O=C1c2ccc(F)cc2CN1c1ccc(Cl)cc1 [MIF-126],concentration of HPP % MaxInhib (number after @),[2]; Table 9,100 µM
same,HPP % MaxInhib,"[2]; Table 9, number before @",32%
same,concentration of CD74 % MaxInhib (number after @),[3]; Table 9,0.078 µM
same,CD74 % MaxInhib,"[3]; Table 9, number before @",7%
Fc1ccc2cc(-c3ccc(Cl)cc3)[nH]c2c1 [MIF-127],pIC50,"[2]; Table 10, read-out: HPP IC50",3.62
same,concentration of CD74 % MaxInhib (number after @),[3]; Table 10,0.34 µM
same,CD74 % MaxInhib,"[3]; Table 10, number before @",22%
Fc1ccc2[nH]c(-c3ccc(Cl)cc3)cc2c1 [MIF-128],pIC50,"[2]; Table 10, read-out: HPP IC50",3.55
same,concentration of CD74 % MaxInhib (number after @),[3]; Table 10,0.0039 µM
same,CD74 % MaxInhib,"[3]; Table 10, number before @",20%
Fc1ccc2nn(-c3ccc(Cl)cc3)cc2c1 [MIF-129],pIC50,"[2]; Table 11, read-out: HPP IC50",3.31
same,concentration of CD74 % MaxInhib (number after @),[3]; Table 11,0.12 µM
same,CD74 % MaxInhib,"[3]; Table 11, number before @",27%
Fc1ccc2[nH]c(-c3ccc(Cl)cc3)nc2c1 [MIF-130],HPP % MaxInhib,"[2]; Table 12, number before @",28%
same,concentration of CD74 % MaxInhib (number after @),[3]; Table 12,0.34 µM
same,CD74 % MaxInhib,"[3]; Table 12, number before @",21%
Fc1ccc2cn(-c3ccc(Cl)cc3)nc2c1 [MIF-131],HPP % MaxInhib,"[2]; Table 11, number before @",30%
same,concentration of CD74 % MaxInhib (number after @),[3]; Table 11,0.12 µM
same,CD74 % MaxInhib,"[3]; Table 11, number before @",29%
O=c1c2ccc(F)cc2sn1-c1cccc(Cl)c1 [MIF-132],pIC50,[2]; [5],5.30
same,concentration of CD74 % MaxInhib (number after @),[3]; Table 6,0.078 µM
same,CD74 % MaxInhib,[3]; [6],20%
N#Cc1ccc(-n2sc3cc(F)ccc3c2=O)cc1 [MIF-133],pIC50,[2]; [5],5.19
same,concentration of CD74 % MaxInhib (number after @),[3]; Table 6,0.078 µM
O=c1c2ccc(F)c(F)c2sn1-c1ccc(Cl)cc1 [MIF-134],pIC50,[2]; [5],5.25
same,concentration of CD74 % MaxInhib (number after @),[3]; Table 6,3.76 µM
same,CD74 % MaxInhib,[3]; [6],11%
c1ccc(-c2nc3ccccc3s2)cc1 [MIF-137],HPP IC50,[2],agonist
same,concentration of CD74 % MaxInhib (number after @),[3]; Table 8,0.078 µM
Cc1ccc2nc(-c3ccccc3)sc2c1 [MIF-138],HPP IC50,[2],agonist
same,concentration of CD74 % MaxInhib (number after @),[3]; Table 8,0.078 µM
same,CD74 % MaxInhib,"[3]; Table 8, number before @",20%
O=c1c2cc(F)ccc2sn1-c1ccc(Cl)cc1 [MIF-141],pIC50,[2]; [5],5.25
same,CD74 IC50,[3],agonist
COc1ccc(-n2sc3ccc(F)cc3c2=O)cc1 [MIF-142],pIC50,[2]; [5],5.19
same,CD74 IC50,[3],agonist
O=c1c2cc(F)c(F)cc2sn1-c1ccc(Cl)cc1 [MIF-143],pIC50,[2]; [5],5.31
same,CD74 IC50,[3],agonist
